# Assay results reported in BindingDB's records for doi:10.1021/jm050519b (Oxagen, 2005).
# Assay: Concentration required to inhibit PGD-2 induced change in the shape of human eosinophils expressing CRTH2
row,IC50,Compound
1,74 nM,Cc1c(CC(=O)O)c2cc(F)ccc2n1S(=O)(=O)c1ccc(S(C)(=O)=O)cc1 [[5-Fluoro-1-(4-methanesulfonyl-benzenesulfonyl)-2-methyl-1H-indol-3-yl]-acetic acid]
2,908 nM,Cc1c(CC(=O)O)c2cc(F)ccc2n1S(=O)(=O)c1ccc(Cl)cc1 [[1-(4-Chloro-benzenesulfonyl)-5-fluoro-2-methyl-1H-indol-3-yl]-acetic acid]
